Source: US20260294770A1, “FORMULATIONS OF NARINGENIN” (DEBUT BIOTECHNOLOGY, INC., priority 2023, published 2026)

Columns and labels:
[1] = test system: HPGD; experiment: Upregulation of gene expression and/or activity, 1% naringenin: HPGD
Text: (§1) In certain embodiments, administration of a composition comprising naringenin leads to up-regulation of LCE5A, KRT77, ALOXE3, KRT1, HPGD, MUCL1, CASP14, WFDC12, KRT10, DNASE1L2, IL37, SERPINB12, HAL, UPK1A, CALML5, LCE2B, and/or MIR205. In certain embodiments, administration of a composition comprising naringenin leads to down-regulation of CCL11, CSF2, IL23A, IL11, BMP6, IL13RA2, C2CD4A, NR4A2, C2CD4B, FGF2, FARP4, GDF15, THBS1, HSPA1A, PTGS2, and/or DKK1. Tables 10 and 11 provide data for upregulation and downregulation respectively of certain genes after administration of compositions comprising 1% naringenin.
Hydroxyprostaglandin dehydrogenase (HPGD) has an anti-inflammatory function. In particular, it is involved in degradation of molecules that lead to inflammatory signaling. For example, HPGD is involved in degradation of prostaglandin, which is involved in inflammatory signaling pathway. In certain embodiments, upregulation of expression and/or activity of HPGD leads to an anti-inflammatory effect. In certain embodiments, upregulation of HPGD leads to increase in degradation of signaling molecules that are involved in inflammation. Thus, the upregulation of HPGD leads to reduced inflammation. In certain embodiments, the administration of composition comprising naringenin results in at least about 5 to about 20-fold upregulation of expression and/or activity of HPGD. […]

[2] = test system: CASP14; experiment: Upregulation of gene expression and/or activity, 1% naringenin: CASP14
Text: as §1
Cysteine-aspartic acid protease 14 (CASP14) plays a role in keratinocyte terminal differentiation, which is important for the formation of the skin barrier. In certain embodiments, administration of compositions comprising naringenin leads to upregulation of CASP14. In certain embodiments, this upregulation of CASP14 leads to the improved skin barrier formation. In certain embodiments, the administration of composition comprising naringenin results in at least about 5 to about 20-fold upregulation of expression and/or activity of CASP14. In certain embodiments, the administration of composition comprising naringenin results in at least about ten (10) fold upregulation of expression and/or activity of CASP14.

[3] = test system: KRT10; experiment: Upregulation of gene expression and/or activity, 1% naringenin: KRT10
Text: as §1
Keratin 10 (KRT10) is also involved in keratin production. Keratin is involved in increasing the barrier strength and resilience of the skin. Keratin 10 is produced in keratinocytes in the outer layer of the skin (the epidermis). In the fluid-filled space inside these cells (the cytoplasm), the keratin 10 protein partners with a similar protein, keratin 1 (produced from the KRT1 gene), to form molecules called keratin intermediate filaments. These filaments assemble into strong networks that provide strength and resiliency to the skin and protect it from being damaged by friction and other everyday physical stresses. […]

[4] = test system: HAL; experiment: Upregulation of gene expression and/or activity, 1% naringenin: HAL
Text: as §1

[5] = test system: FGF2; experiment: Downregulation of gene expression and/or activity, 1% naringenin: FGF2; settings: negative = downregulation
Text: as §1

[6] = test system: HSPA1A; experiment: Downregulation of gene expression and/or activity, 1% naringenin: HSPA1A
Text: as §1
Heat shock protein family A (Hsp70) member 1A (HSPA1A) plays a role in clearing of aged cells and/or senolytic effect. In certain embodiments, the administration of compositions comprising naringenin leads to downregulation of expression and/or activity of HSPA1A. […] In certain embodiments, this may also lead to anti-aging effect for the skin. In certain embodiments, the administration of composition comprising naringenin results in at least about 2 to about 10-fold downregulation of expression and/or activity of HSPA1A. In certain embodiments, the administration of composition comprising naringenin results in at least about five (5) fold downregulation of expression and/or activity of HSPA1A.

[7] = ABTS antioxidant assay (aqueous); type: biochemical; settings: for % Radical Inhibition: aqueous
Text: The 2,2′-Azinobis [3-ethylbenzothiazoline-6-sulfonic acid]-diammonium salt (ABTS) antioxidant assay is designed to evaluate the antioxidant activity of compositions comprising naringenin in an aqueous medium. ABTS+ solution is generated as a free radical and used to measure relative ability of a compound to scavenge free radicals. Reduction of the absorbance at 734 nm was standardized to solvent control as an indication of ABTS+ scavenging.

[8] = test system: TNFα; experiment: TNFα concentration in stimulated (stressed) normal human epidermal keratinocytes (ELISA); type: cell-based; settings: for TNFα concentration: LPS + Poly:IC stressed NHEK, stimulated control 202.6
Text: Normal Human Epidermal Keratinocytes (NHEK) were stressed with a cocktail of lipopolysaccharide (LPS) and Polyinosinic-polycytidylic acid sodium salt (Poly:IC), external aggressors capable of inducing an inflammatory response. Stressed cells were subsequently treated with test articles and reduction in inflammatory markers was measuring by ELISA. Tables 19 and 20, provided below, discloses data for TNFα and IL-6 concentrations, respectively, in stressed normal human epidermal keratinocytes.

[9] = test system: superoxide dismutase; settings: consumed orally; cited from earlier work
[10] = test system: glutathione; settings: consumed orally; cited from earlier work
[11] = test system: HaCaT immortalized keratinocytes; settings: 10 μM; cited from earlier work
[12] = test system: psoriasis models; settings: cited from earlier work

O=C1C[C@@H](c2ccc(O)cc2)Oc2cc(O)cc(O)c21 [naringenin, (2S)-5,7-Dihydroxy-2-(4-hydroxyphenyl)-2,3-dihydro-4H-1-benzopyran-4-one]
Fold-increase in expression and/or activity of HPGD [1]: ~10 fold
Fold-increase in expression and/or activity of CASP14 [2]: ~11 fold
Fold-increase in expression and/or activity of KRT10 [3]: ~6 fold
Fold-increase in expression and/or activity of HAL [4]: 8 fold
Fold-increase (downregulation table) FGF2 [5]: −7 fold
fold downregulation in expression and/or activity of HSPA1A [6]: ~6 fold
Fold-increase (downregulation table) HSPA1A ([6]; negative = downregulation): −6 fold
% Radical Inhibition ([7]; 0.0045 % w/w naringenin): 47.50%
% Radical Inhibition ([7]; 0.009 % w/w naringenin): 55.45%
% Radical Inhibition ([7]; 0.018 % w/w naringenin): 65.39%
IC50 antioxidant activity (ABTS) ([7]; aqueous solvent system, calculated): 0.0058 % w/w
Lowest concentration with antioxidant activity ([7]; aqueous systems): ≤ 0.001 % w/w
TNFα concentration ([8]; 0.0001% naringenin, p-value 6.99E−07): 94.3 pg/mL
TNFα concentration ([8]; 0.0045% naringenin, p-value 0.002047): 43.8 pg/mL
TNFα concentration ([8]; 0.007% naringenin, p-value 0.002961): 70.3 pg/mL
TNFα concentration ([8]; 0.01% naringenin, p-value 0.004838): 104.2 pg/mL
inhibition at 0.0001 % ([8]; Homo sapiens, NHEK, 0.0001% naringenin, vs stimulated control, p-value 6.99E−07, read-out: TNFα % Reduction vs Treated): 53.4%
inhibition at 0.0045 % ([8]; Homo sapiens, NHEK, 0.0045% naringenin, vs stimulated control, p-value 0.002047, read-out: TNFα % Reduction vs Treated): 78.4%
inhibition at 0.007 % ([8]; Homo sapiens, NHEK, 0.007% naringenin, vs stimulated control, p-value 0.002961, read-out: TNFα % Reduction vs Treated): 65.3%
inhibition at 0.01 % ([8]; Homo sapiens, NHEK, 0.01% naringenin, vs stimulated control, p-value 0.004838, read-out: TNFα % Reduction vs Treated): 48.6%
Reduction of TNFα (in words) ([8]; stressed keratinocytes): to non-stressed levels
Superoxide dismutase [9]: increase
Glutathione [10]: increase
Protection from UVB-induced apoptosis [11]: protecting HaCaT immortalized keratinocytes from UVB-induced apoptosis
Skin barrier restoration [12]: restoration of skin barrier
